Laboratory results from patent publication US6531464B1, “Methods for the treatment of neurodegenerative disorders using substituted phenanthridinone derivatives” (Inotek Pharmaceutical Corporation, priority 1999, dated 2003).

Legend:
SJL/PLJ mice = experiment: Experimental allergic encephalomyelitis (EAE) induced by MBP immunization; assay type: in vivo, mouse
Method: The studies were performed according to standard methods. See, e.g., Hooper et al., Proc Natl Acad Sci U S A 95:675-680, 1998. Briefly, EAE was caused by immunization of 8-10 week old female SJL/PLJ mice with MBP (in complete Freund's adjuvant containing 0.05% M Butyricum plus an additional 4 mg/ml Mycobacterium Tuberculosis H37 RA, one […] subcutaneous dose plus 2 doses of 400 ng pertussis toxin, intra-peritoneal, on days 0 and 2). The grading system shown in Table 5 was used to evaluate the severity of the disease.

J774 macrophages = experiment: LPS-stimulated J774 macrophages: cell viability; assay type: cell-based
Description: (§1) In in vitro studies, J774 macrophages were exposed to bacterial lipopolysaccharide (LPS), to induce pro-inflammatory mediator production and cytotoxicity. […] This assay (the LPS-stimulated macrophage) represents an in vitro model of an inflammatory situation. Agents that block inflammatory mediator production in this assay are expected to have anti-inflammatory or immunosuppressive effects in inflammatory or immune diseases.
(§2) The half-maximal inhibitory effect (in μM) of various PJ compounds was assessed under a variety of conditions in immunostimulated J774 macrophages and in peroxynitrite-stimulated thymocytes. Macrophages or thymocytes were first treated with a chosen PJ compound for 30 min at a concentration ranging from 0.1 to 30 μM. The cells were then immunostimulated with LPS (10 μg/ml) or treated with peroxynitrite (30 μM). MIP production in the macrophages was measured at 3 h, TNF and nitric oxide were measured at 24 h, cell viability in the macrophages were measured at 24 h. PARS activation and cell death in thymocytes were measured at 6 h. Measurements of mediator production, PARS activation and cell death were essentially as described in Németh, et al., Eur J Pharmacol 339:215-221, 1997 and Virág and Szabó, Br J Pharmacol, 126: 769-777, 1999. Results in Table 2 are shown as EC50 values (half maximal inhibition of mediator production or restoration of cell viability; in μM): [mean±SEM of n=3-6 determinations].

Lewis rats = experiment: Heterotopic heart transplantation: coronary blood flow and myocardial performance; assay type: in vivo, rat; details: 3 mg/kg i.v.
thymocytes = experiment: Peroxynitrite-stimulated thymocytes: cell viability; assay type: cell-based
Method: as §2

MIP-2 = experiment: LPS-stimulated J774 macrophages: MIP-2 production; assay type: cell-based
Description: as §1, §2

Balb/c mice = experiment: LPS-induced mortality (systemic inflammatory model); details: LPS 90 mg/kg intraperitoneally; pretreatment 20 mg/kg; over 24 h; 92% death without treatment
Method: In order to substantiate the efficacy of the PJ series of compounds in inflammatory conditions, the effect of compounds according to the invention were tested in a systemic inflammatory model induced by bacterial lipopolysaccharide.

MIP-1α = experiment: LPS-stimulated J774 macrophages: MIP-1α production; assay type: cell-based
Description: as §1, §2

anesthetized rat = experiment: Coronary artery ligation and release (myocardial reperfusion injury) in anesthetized rat; assay type: in vivo; design: dose or concentration left out as unconfirmed; details: 1-hour coronary ischemia, 1 hour reperfusion, i.v. 10 min prior to reperfusion
TNF-α = experiment: LPS-stimulated J774 macrophages: TNF-α production; assay type: cell-based
Description: as §1, §2

[1] = 10 mg/kg orally 2 times daily from day 10
[2] = J774 macrophages exposed to LPS

CN(C)CC(=O)Nc1ccc2[nH]c(=O)c3ccccc3c2c1 [PJ34, N-(6-oxo-5,6-dihydro-phenanthridin-2-yl)-N,N-dimethylacetamide]
mortality in EAE (in words) (SJL/PLJ mice; [1]): significant reduction
severity of EAE (in words) (SJL/PLJ mice; [1]): significant reduction
Percent mortality (SJL/PLJ mice; Day 10 after immunization, 10 mg/kg orally 2 times daily from day 10): 0%
Average Disease severity index (SJL/PLJ mice; Day 10 after immunization, 10 mg/kg orally 2 times daily from day 10, grading Table 5): 0
Average Disease severity index (SJL/PLJ mice; Day 11): 0
Percent mortality (SJL/PLJ mice; Day 11): 0%
Average Disease severity index (SJL/PLJ mice; Day 12): 0
Percent mortality (SJL/PLJ mice; Day 12): 0%
Average Disease severity index (SJL/PLJ mice; Day 13): 0
Percent mortality (SJL/PLJ mice; Day 13): 0%
Average Disease severity index (SJL/PLJ mice; Day 14): 0
Percent mortality (SJL/PLJ mice; Day 14): 0%
Average Disease severity index (SJL/PLJ mice; Day 15): 0
Percent mortality (SJL/PLJ mice; Day 15): 0%
Average Disease severity index (SJL/PLJ mice; Day 16): 4
Percent mortality (SJL/PLJ mice; Day 16): 0%
Average Disease severity index (SJL/PLJ mice; Day 17): 4
Percent mortality (SJL/PLJ mice; Day 17): 0%
Average Disease severity index (SJL/PLJ mice; Day 18): 4
Percent mortality (SJL/PLJ mice; Day 18): 0%
Average Disease severity index (SJL/PLJ mice; Day 19): 4
Percent mortality (SJL/PLJ mice; Day 19): 0%
Average Disease severity index (SJL/PLJ mice; Day 20): 3
Percent mortality (SJL/PLJ mice; Day 20): 0%
viability of the cells suppressed by LPS exposure (in words) (J774 macrophages; [2]): restored the viability
EC50 (J774 macrophages; Mus musculus, J774, LPS 10 μg/ml, 30 min pretreatment 0.1 to 30 μM, measured at 24 h, mean±SEM n=3-6, read-out: Enhancement of cell Viability (J774)): 12.5 ± 1.4 µM
myocardial performance (in words) (Lewis rats; data not shown): markedly enhanced
Basal coronary bloodflow (Lewis rats; 1 h after transplant, vehicle 2.8 ± 0.3): 4.1 ± 0.4 mL/min
Acetylcholine stimulated coronary bloodflow (Lewis rats; 1 h after transplant, vehicle 3.5 ± 0.3): 6.5 ± 0.5 mL/min
Basal coronary bloodflow (Lewis rats; 24 h after transplant, vehicle 3.9 ± 0.3): 4.2 ± 0.2 mL/min
Acetylcholine stimulated coronary bloodflow (Lewis rats; 24 h after transplant, vehicle 6.1 ± 0.4): 8.2 ± 0.8 mL/min
EC50 (thymocytes; Thymocyte, peroxynitrite 30 μM, 30 min pretreatment 0.1 to 30 μM, measured at 6 h, mean±SEM n=3-6, read-out: Enhancement of cell viability (thymocyte)): 0.2 ± 0.1 µM
oxidant-induced suppression of the viability of the cells (in words) (thymocytes; isolated thymocytes exposed to peroxynitrite or hydrogen peroxide): prevented
production of the chemokine MIP-2 (in words) (MIP-2; [2]): inhibited
EC50 (MIP-2; Mus musculus, J774, LPS 10 μg/ml, 30 min pretreatment 0.1 to 30 μM, measured at 3 h, mean±SEM n=3-6, read-out: Inhibition of MIP-2 (J774)): 7.2 ± 0.88 µM
endotoxin-induced mortality (Balb/c mice): 50%
production of the chemokine MIP-1α (in words) (MIP-1α; [2]): inhibited
EC50 (MIP-1α; Mus musculus, J774, LPS 10 μg/ml, 30 min pretreatment 0.1 to 30 μM, measured at 3 h, mean±SEM n=3-6, read-out: Inhibition of MIP-1α (J774)): 10.2 ± 1.4 µM
reduction of plasma levels of creatine phosphokinase (CPK) (anesthetized rat): approx. 50%
myocardial infarct size (area of necrosis, over area of risk) (anesthetized rat; 62±1 without treatment): 50±3%
production of the pro-inflammatory cytokine TNF-α (in words) (TNF-α; [2]): inhibited
EC50 (TNF-α; Mus musculus, J774, LPS 10 μg/ml, 30 min pretreatment 0.1 to 30 μM, measured at 24 h, mean±SEM n=3-6, read-out: Inhibition of TNF-α (J774)): 5.4 ± 0.6 µM
